Assay results: patent publication US20040143865A1, “Transgenic zebrafish models for angiogenesis” (priority 2002, published 2004)
Entries after “also recorded” stand apart in the source; their conditions may differ.

Assays:
[1] = patients treated in clinical trials; cited from earlier work
[2] = tested on: vascular endothelial cell; conditions: in vitro; cited from earlier work
[3] = tested on: TG(VEGFR2:G-RCFP) transgenic zebrafish embryos; test: Angiogenesis inhibitor assay in TG(VEGFR2:G-RCFP) transgenic zebrafish embryos with fluorescent blood vessels; conditions: for Intersegmental vessel formation: treated overnight from 13-somite stage (approximately 15 hpf); for Phenotypic response: cell wrapped over the compound's rows, in full: Dorsal aorta, caudal veins, present. Intersegmental vessels absent. Cranial vessels reduced in number.; for Concentrations of the compounds required to see these effects (complete block of intersegmental vessel formation) / Blood vessels in the head that form by angiogenesis: overnight application; for Blood vessels in the head that form by angiogenesis: 10 μM for SU5416 and 15 μM for SU6668; for Effect on pre-existing blood vessels: six-hour treatment at 24 hpf, well-established primary vasculature not affected; for Migration pattern of VEGFR2 expressing cells toward the midline: treated embryos at the 18 somite stage, versus control
mouse xenograft models = mouse xenograft models (Shaheen et al., 1999); cited from earlier work
zebrafish blood vessels = conditions: Chan et al., 2002; cited from earlier work
[4] = 10 μM, stage at treatment 6 hpf, time treated 24 h
[5] = 10 μM, stage at treatment 15 hpf, time treated 24 h
[6] = 10 μM, stage at treatment 24 hpf, time treated 6 h

| SMILES | VEGF-induced vascular endothelial cell proliferation [2] | Percent full effect [3, 4] [%] | Percent full effect [3, 5] [%] | Percent full effect [3, 6] [%] | Phenotypic response [3] | Concentrations of the compounds required to see these effects (complete block of intersegmental vessel formation) [3] [µM] | Blood vessels in the head that form by angiogenesis [3] | Effect on pre-existing blood vessels [3] | Migration pattern of VEGFR2 expressing cells toward the midline [3] | Metastases, microvessel formation and apoptosis (mouse xenograft models) | further results |
| --- | --- | --- | --- | --- | --- | --- | --- | --- | --- | --- | --- |
| Cc1cc(C)c(/C=C2\C(=O)Nc3ccccc32)[nH]1 [SU5416] | inhibit VEGF-induced vascular endothelial cell proliferation in vitro | 100 | 100 | 100 | Dorsal aorta, caudal | 10 | blood vessels in the head that form by angiogenesis were not observed | disrupted pre- existing blood vessels | No difference was observed in the migration pattern of VEGFR2 expressing cells | inhibit the formation of metastases and microvessel formation and increase apoptosis of both tumor cells and tumor endothelial cells | Plasma level [1]: 5 µM; Percent full effect ([3]; 5 μM, stage at treatment 6 hpf, time treated 24 h): 100%; Percent full effect ([3]; 5 μM, stage at treatment 15 hpf, time treated 24 h): 77%; Percent full effect ([3]; 5 μM, stage at treatment 24 hpf, time treated 6 h): 60%; Disruption of pre-existing intersegmental vessels ([3]; 10 μM for six hours beginning at 24 hpf, embryo at 30 hpf): A single intersegmental vessel (indicated by arrow) remains; Intersegmental vessel formation ([3]; 10 μM, embryo at 30 hpf): No intersegmental vessels are observed; also recorded: completely blocked intersegmental vessel formation; Percent full effect ([3]; 10 μM, stage at treatment 15 hpf, time treated 6 h): 100%; Recovery time of treated embryos ([3]; comparison SU5416 versus SU6668): required a longer recovery time than those treated with SU6668; Distribution in treated embryos ([3]; difficult to remove even after many hours of soaking in fresh water): highly concentrated in the yolk of treated embryos |
| Clc1ccc(Nc2nnc(Cc3ccncc3)c3ccccc23)cc1 [PTK787/ZK222584] | – | – | – | – | – | – | – | – | – | – | Formation of zebrafish blood vessels (zebrafish blood vessels): affect the formation of zebrafish blood vessels |
| Cc1[nH]c(/C=C2\C(=O)Nc3ccccc32)c(C)c1CCC(=O)O [SU6668] | inhibit VEGF-induced vascular endothelial cell proliferation in vitro | 100 | 100 | 87 | Dorsal aorta, caudal | 15 | blood vessels in the head that form by angiogenesis were not observed | disrupted pre- existing blood vessels | No difference was observed in the migration pattern of VEGFR2 expressing cells | inhibit the formation of metastases and microvessel formation and increase apoptosis of both tumor cells and tumor endothelial cells | Intersegmental vessel formation ([3]; 15 μM, embryo at 30 hpf): No intersegmental vessels are observed; also recorded: completely blocked intersegmental vessel formation; Percent full effect ([3]; 15 μM, stage at treatment 6 hpf, time treated 24 h): 100%; Percent full effect ([3]; 15 μM, stage at treatment 15 hpf, time treated 6 h): 100%; Percent full effect ([3]; 15 μM, stage at treatment 15 hpf, time treated 24 h): 100%; Percent full effect ([3]; 15 μM, stage at treatment 24 hpf, time treated 6 h): 100%; Intersegmental vessels after recovery ([3]; larva at 5 dpf, treated overnight with 15 μM at 2 dpf, recovered 3 days in fresh water, some vessels migrating abnormally): Intersegmental vessels are reforming |
